The values that follow come from patent publication US6677302B2, “Compositions and methods for the treatment of viral disorders” (The Trustees of Boston University, priority 1996, dated 2004).

One series concerns MCF-7 (breast cancer). The series is described as follows: Survival fraction after 72 hours exposure (MTT assay). The format is cell-based, human. Here is the method: (§1) Growth inhibition was measured by the MTT assay. Survival fraction is calculated from at least 3 experiments, and differences in survival fraction are statistically significant P<0.05, using the Paired Two-Sample For Means T-Test. […] PC-3=prostate cancer; A549=non-small cell cancer; OvCar=ovarian cancer; CaCo=colon cancer; MCF-7=breast cancer; and SW900=non-small cell lung cancer.
On the technique in general: Tetrazolium assays rely on reduction of a dye to a coloured formazan, in cell work by metabolically active cells.

Another series has as its system OvCar (ovarian cancer). The description is as above. It counts as cell-based, human. Here is the method: as §1
The subject of a further series is PC-3 (prostate cancer). The series is described as above. The format is cell-based, human. The protocol:
as §1

Series [1] concerns SW900 (non-small cell lung cancer). The series is described as above. It counts as cell-based, human. The protocol:
as §1

Series [2] deals with A549 (non-small cell cancer). The description is as above. It counts as cell-based, human. Here is the method:
(§2) Growth inhibition was measured by the MTT assay. […] PC-3=prostate cancer; A549=non-small cell cancer; OvCar=ovarian cancer; CaCo=colon cancer; MCF-7=breast cancer; and SW900=non-small cell lung cancer.

In the next series the test system is CaCo (colon cancer). The description is as above. The format is cell-based, human. Here is the method:
as §2

The subject of the next series is EBV-TK MRNA. Description: EBV-TK mRNA dose response experiments. It counts as cell-based. Particulars: in vitro. Here is the method:
(§3) In vitro, peaks induction of EBV-TK plateaus at serum level of around 1 mM. […] Therefore, dose levels up to 2,000 mg/kg/day, were evaluated in an attempt to reach serum levels of 1 mM. Treatment cycles were of 4 week duration, with 3 weeks on treatment and one week off. Patients were given the standard dose of GCV throughout each 21 day course of arginine butyrate, starting, however, on day 0. Arginine butyrate was given by continuous IV infusion at 500 mg/kg/day for 2 days, at 1,000 mg/kg/day for 2 days, at 1,500 mg/kg/day for 2 days, and thereafter at 2,000 mg/kg/day, or as tolerated, for the rest of the 21 day course. Cycle 2 was begun on Day 29. Patients were given a complete tumor evaluation after every course with subsequent cycles emitted unless disease progressed.
In some experiments sodium was used instead of arginine to neutralize butyric acid. In dose response experiments, levels of EBV-TK MRNA plateaus at around 1 mM to 3 mM sodium butyrate, inducing levels essentially equivalent to those induced by 1 mM arginine butyrate. […] Similarly, levels of GCV above 30 μM were generally cytocidal to both to EBV+ and EBV− cell lines. Cell lines used were X50-7, a latent EBV+ B-cell lymphoma; Akata, a producer EBV+ Burkitt's lymphoma; HPB-ALL, a T-cell line; and Nalm-6, an EBV− B-cell line. […]

Series [3] can be described thus: Clinical pharmacokinetics of butyrate infusion. The format is in vivo, human. The note with it: patients with β-hemoglobinopathies. Here is the method: Clinical experience with butyrates have been performed in children with acute myelogenous leukemia in Israel, and in children with neuroblastoma (K. Prasad, Life Sci. 27:1351-58, 1980). […] Eleven pediatric patients and twelve adults with β-hemoglobinopathies were treated with IV arginine butyrate at a starting dose of 500 mg/kg/day for 2-7 weeks. If no side effects were noted, the rate was increased by 250 mg/kg/day to a final rate of 1500 mg/kg/day in 4 patients, and 2000 mg/kg/day in 2 patients. […] This rise in BUN returned to normal within 12 hours of discontinuation of drug, and is thought to be secondary to effect of arginine upon ureagenesis. […] Peak serum levels of butyrate ranged between 0.04-0.05 mM, and butyrate was not detectable 15 minutes after infusion was discontinued. Plasma arginine levels were also rapidly cleared, with a T1/2 of 15 minutes, and baseline arginine levels were reached within 12 hours after discontinuation of infusion.
Butyric acid is a short chain fatty acid present in foods such as dairy products. Arginine is an amino acid which is commonly used in hyperalimentation solutions in hospitals throughout the country. Butyric acid was obtained from Aldrich, catalog number W-212. L-Arginine is anhydrous. Arginine was combined with butyric acid, pH 5.0-5.5, in sterile, non-pyrogenic water for injection to neutralize the fatty acid. The solution was filtered through a Millipore System at a final concentration for injection of 100 mg/ml or 25 mg/ml. Each lot was pyrogen tested and tested for sterility and purity. […] Since 10% arginine butyrate solution is hypertonic (100 mg/ml), it must be infused through a long or deep IV access to avoid peripheral venous irritation. Arginine butyrate was infused via an infusion pump. European pharmacokinetic studies of arginine butyrate given as a “slow” and 90 minute bolus of 500 mls of a 5% solution (2.5 g/M in two normal volunteers, and found a 15 minute elimination period. Plasma levels from patients with hemoglobinopathies have shown that butyric acid disappears within 5 to 15 minutes after an infusion of up to 2,000 mg/kg/day.
as §3, with “Patients were given a complete tumor evaluation after every course with subsequent cycles emitted unless disease progressed.” left out

Another series deals with SKNSH cells. The series is described as follows: Induction of apoptosis. The note with it: FIG. 1b. It counts as cell-based, human.
Series [4] deals with HIV p24 in co-cultures of human PBMC and Ci11. Description: HIV p24 production, radio-immuno assay. The note with it: 72 hours post-cultivation; FIG. 13. It counts as cell-based. From the text: The effect of arginine butyrate on HIV p24 production could be easily studied in co-cultures of human PBMC and Ci11, an HIV infected cell line. […] Despite these encouraging results with a more direct assay than those published previously, the potential risks to HIV+ patients of treatment with arginine butyrate have not been evaluated as these patients were excluded from the protocol (FIG. 13). HIV p24 levels assessed by radio-immuno assay.

The conditions of series [5]: European pharmacokinetic studies; 500 mls of a 5% solution; two normal volunteers; cited from earlier work.
[6] abbreviates: Table 3, 0.5 AB (0.5 mM), 72 hours.
[7] abbreviates: Table 4, 0.5 AB (0.5 mM), 72 hour.

Marks after values point to notes of the source that are not given here. Where only a bound is given, the exact number is not on record here.

As for arginine butyrate, the “Survival Fraction” value with MCF-7 (breast cancer) (Table 4, 0.5 AB (0.5 mM)) is given as 0.74*; with MCF-7 (breast cancer) (Table 4, .05 AB) it was 0.89*; in the series on OvCar (ovarian cancer) (setting [6]), 0.86**; in the series on OvCar (ovarian cancer) (setting [7]), 0.88*; in the series with OvCar (ovarian cancer) (Table 4, .05 AB, 72 hour) it was 0.96; in the series on PC-3 (prostate cancer) (setting [6]), 0.67*. Also, the “Survival Fraction” value in the series with PC-3 (prostate cancer) (setting [7]) is recorded as 0.74*; with PC-3 (prostate cancer) (Table 4, .05 AB, 72 hour) it was 0.82*; in series [1] (Table 4, 0.5 AB (0.5 mM)), 0.92; in series [1] (Table 4, .05 AB), 0.95; in series [2] (setting [6]), 0.92; in [2] (setting [7]) it was 0.76*. Further, the “Survival Fraction” value is 0.71* in [2] (Table 4, .05 AB, 72 hour); 0.60* in the series with CaCo (colon cancer) (Table 3, 1.0 AB (1.0 mM), 72 hours); 0.67* in the series with CaCo (colon cancer) (setting [7]); 0.81* in the series on CaCo (colon cancer) (Table 4, .05 AB, 72 hour). In addition, the “level at which peak induction of EBV-TK plateaus” value in the series with EBV-TK MRNA is recorded as “around 1 mM”. Further, the “Plasma arginine T1/2” value in series [3] (IV) came to 15 min. In addition, the “time after discontinuation of infusion at which butyrate was not detectable” value in series [3] (IV) came to 15 min. Moreover, the “time to baseline arginine levels after discontinuation of infusion” value in series [3] (IV) is at most 12 h. The “Peak serum levels of butyrate” value in series [3] (IV 500 up to 2000 mg/kg/day) fell in the range of 0.04 to 0.05 mM. Besides, the apoptosis result with SKNSH cells is “induces apoptosis”. The “HIV p24 production” value in series [4] is reported as “significant decrease in p24 production”. For the same substance, the elimination period in series [5] was 15 min.
